The numbers were not newly measured in patent publication US7807193B2 (priority 2002, dated 2010), which cites them from elsewhere.

One data set relates to ob/ob mice. As to conditions: homozygous diabetic mouse model (ob/ob); U.S. application 20020037861 A1.
For data set [1] the following is noted: patients having adult onset diabetes, drug treatment therapy versus insulin treatment.

As for `CC1(C)O[C@@H]2[C@@H](CO[C@@]3(COS(N)(=O)=O)OC(C)(C)O[C@@H]23)O1` [topiramate, 2,3:4,5-bis-O-(1-methylethylidene)-β-D-fructopyranose sulfamate], the “Levels of blood glucose, triglycerides, insulin and glycosylated hemoglobin versus control ob/ob mice not given topiramate” value in the data set with ob/ob mice is reported as “significantly lower”.
For the compound `CN(C)C(=N)N=C(N)N` [metformin], the Mortality rates in data set [1] was 8%.
